The target in assay [1] is human MMP13 (Homo sapiens (Human), UniProt P45452). Conditions: read-out: hMMP-13 potency IC50.
Experimental: Human MMP13 is preactivated by incubated the enzyme in the same buffer complemented with 1 mM freshly prepared p-Aminophenylmercuric acetate (AMPA) for 1 hour at 37° C.
Assay [2] concerns the target human MMP14 (Homo sapiens (Human), UniProt P50281). As to conditions: read-out: hMMP-14 potency IC50.
The target in assay [3] is human TACE (Homo sapiens (Human), UniProt P78536). Conditions: read-out: TACE potency IC50.
Assay [4] has as its target human ADAMTS-5 (Homo sapiens (Human), UniProt Q9UNA0). Conditions: read-out: hADAMTS-5 potency IC50.
Experimental: Finally, the fluorescence is read on the Envision (Perkin Elmer) after an incubation of 90 min at 37° C.
Assay [5] has as its target rnADAMTS-5 (1-564-6H) (Rattus norvegicus, UniProt Q6TY19). As to conditions: read-out: Rat ADAMTS-5 potency IC50.

Chain of human TACE (P78536 whole entry, looked up, change not shown): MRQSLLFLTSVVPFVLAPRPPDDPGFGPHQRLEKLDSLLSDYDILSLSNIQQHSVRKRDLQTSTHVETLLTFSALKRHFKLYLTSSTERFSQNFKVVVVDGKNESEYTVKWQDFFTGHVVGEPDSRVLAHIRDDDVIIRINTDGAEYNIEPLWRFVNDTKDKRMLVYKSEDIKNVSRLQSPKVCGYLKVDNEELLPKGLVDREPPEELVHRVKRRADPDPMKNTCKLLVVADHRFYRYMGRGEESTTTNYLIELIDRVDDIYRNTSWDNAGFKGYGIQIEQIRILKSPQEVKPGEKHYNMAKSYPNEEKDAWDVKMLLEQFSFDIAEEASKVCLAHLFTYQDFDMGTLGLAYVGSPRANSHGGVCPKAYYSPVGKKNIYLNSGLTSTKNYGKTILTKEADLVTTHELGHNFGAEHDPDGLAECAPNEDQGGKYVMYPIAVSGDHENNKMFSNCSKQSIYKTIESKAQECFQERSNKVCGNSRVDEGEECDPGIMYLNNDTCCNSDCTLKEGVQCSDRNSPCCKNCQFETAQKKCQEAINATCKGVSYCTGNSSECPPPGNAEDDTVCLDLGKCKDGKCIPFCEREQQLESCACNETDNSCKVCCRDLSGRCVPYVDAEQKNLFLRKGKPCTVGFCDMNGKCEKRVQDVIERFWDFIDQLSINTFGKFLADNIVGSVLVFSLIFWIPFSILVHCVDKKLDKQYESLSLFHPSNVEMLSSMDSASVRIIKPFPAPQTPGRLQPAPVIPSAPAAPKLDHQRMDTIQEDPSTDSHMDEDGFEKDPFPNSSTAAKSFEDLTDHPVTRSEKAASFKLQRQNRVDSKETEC
Chain of human ADAMTS-5 (Q9UNA0 262-930): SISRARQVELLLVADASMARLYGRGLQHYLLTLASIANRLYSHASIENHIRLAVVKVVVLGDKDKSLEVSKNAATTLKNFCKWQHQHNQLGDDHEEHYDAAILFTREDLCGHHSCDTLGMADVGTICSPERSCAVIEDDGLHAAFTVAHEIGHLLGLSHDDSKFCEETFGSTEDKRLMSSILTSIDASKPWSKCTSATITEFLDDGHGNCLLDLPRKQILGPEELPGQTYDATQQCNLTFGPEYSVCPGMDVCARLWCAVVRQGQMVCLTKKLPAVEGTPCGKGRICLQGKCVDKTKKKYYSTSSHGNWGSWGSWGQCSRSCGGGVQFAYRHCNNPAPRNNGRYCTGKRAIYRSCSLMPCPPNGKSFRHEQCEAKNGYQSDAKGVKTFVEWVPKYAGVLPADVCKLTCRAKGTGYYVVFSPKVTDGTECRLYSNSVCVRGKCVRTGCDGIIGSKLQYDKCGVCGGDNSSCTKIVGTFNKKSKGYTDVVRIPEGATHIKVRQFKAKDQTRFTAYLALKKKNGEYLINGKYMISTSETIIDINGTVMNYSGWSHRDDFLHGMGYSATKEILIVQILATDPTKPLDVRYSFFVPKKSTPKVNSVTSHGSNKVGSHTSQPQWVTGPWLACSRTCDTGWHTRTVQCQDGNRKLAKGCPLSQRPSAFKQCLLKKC

Turning to `CC(=O)N1CC(C2(CC(C)C(=O)N3CCN(c4ccc(F)c(F)c4)[C@@H](C)C3)NC(=O)NC2=O)C1` (stereo partly drawn) [compound 249, 5-(1-acetylazetidin-3-yl)-5-[3-[(3S)-4-(3,4-difluorophenyl)-3-methyl-piperazin-1-yl]-2-methyl-3-oxo-propyl]imidazolidine-2,4-dione], the IC50 is more than 4000 nM in assay [1]; 1230 nM in assay [2]; more than 19600 nM in assay [3]; 36 nM in assay [4]; 34 nM in assay [5].
`CC(=O)NCC1(CCC(=O)N2CCN(c3cc(Cl)cc(Cl)c3)CC2)NC(=O)NC1=O` (stereo not shown) [Cpd 223, N-[[4-[3-[4-(3,5-dichlorophenyl)piperazin-1-yl]-3-oxo-propyl]-2,5-dioxo-imidazolidin-4-yl]methyl]acetamide]: the 50% inhibitory concentration (IC50) is more than 20000 nM in assay [1], more than 20000 nM in assay [2], more than 4000 nM in assay [3] and 70 nM in assay [4].
`CC1(CCC(=O)N2CCN(c3cc(Cl)cc(Cl)c3)CC2)NC(=O)NC1=O` (stereo not shown) [compound 40, 5-[3-[4-(3,5-dichlorophenyl)piperazin-1-yl]-3-oxo-propyl]-5-methyl-imidazolidine-2,4-dione]: the IC50 in assay [1] is more than 20000 nM; in assay [2], more than 20000 nM; in assay [3] it was 2720 nM; in assay [5] it was 234 nM.
In the case of `O=C1NC(=O)[C@](CCC(=O)N2CCN(c3cc(Cl)cc(Cl)c3)CC2)(C2CC2)N1` [compound 173, (5S)-5-cyclopropyl-5-[3-[4-(3,5-dichlorophenyl)piperazin-1-yl]-3-oxo-propyl]imidazolidine-2,4-dione], the IC50 in assay [1] is more than 20000 nM; in assay [2], more than 20000 nM; in assay [3] it was 3140 nM; in assay [4], 22 nM; in assay [5] it was 21 nM.
Take `CC(CC1(CCN)NC(=O)NC1=O)C(=O)N1CCN(c2cc(Cl)cc(Cl)c2)CC1` (stereo not shown) [compound 210, 5-(2-aminoethyl)-5-[3-[4-(3,5-dichlorophenyl)piperazin-1-yl]-2-methyl-3-oxo-propyl]imidazolidine-2,4-dione]: the IC50 in assay [1] is more than 14700 nM; in assay [2], more than 20000 nM; in assay [3] it was 1440 nM; in assay [4], 108 nM; in assay [5] it was 105 nM.
For `COCC1(CC(C)C(=O)N2CCN(c3ccc(F)c(F)c3)[C@@H](C)C2)NC(=O)NC1=O` (stereo partly drawn) [compound 226, 5-[3-[(S)-4-(3,4-difluorophenyl)-3-methyl-piperazin-1-yl]-2-methyl-3-oxo-propyl]-5-(methoxymethyl)imidazolidine-2,4-dione], the IC50 in assay [1] is 3270 nM; in assay [2] it was 978 nM; in assay [3], more than 4000 nM; in assay [4], 22 nM.
With `COCC1(CC(C)C(=O)N2CCN(c3cccc(Cl)c3C)[C@@H](C)C2)NC(=O)NC1=O` (stereo partly drawn) [compound 232, 5-[3-[(3S)-4-(3-chloro-2-methyl-phenyl)-3-methyl-piperazin-1-yl]-2-methyl-3-oxo-propyl]-5-(methoxymethyl)imidazolidine-2,4-dione], the IC50 was more than 20000 nM in assay [1], more than 20000 nM in assay [2], more than 4000 nM in assay [3] and 47 nM in assay [4].
For the compound `C[C@H]1CN(C(=O)CC[C@@]2(C3CC3)NC(=O)NC2=O)CCN1c1ccc(F)c(F)c1` [compound 205, (5S)-5-cyclopropyl-5-[3-[(3S)-4-(3,4-difluorophenyl)-3-methyl-piperazin-1-yl]-3-oxo-propyl]imidazolidine-2,4-dione], the IC50 is more than 20000 nM in assay [1]; more than 4000 nM in assay [2]; more than 20000 nM in assay [3]; 26 nM in assay [4]; 27 nM in assay [5].
For the compound `O=C1NC(=O)C(CCC(=O)N2CCN(c3cc(Cl)cc(Cl)c3)CC2)(C2CC2)N1` (stereo not shown) [compound 55, 5-cyclopropyl-5-[3-[4-(3,5-dichlorophenyl)piperazin-1-yl]-3-oxo-propyl]imidazolidine-2,4-dione], the IC50 in assay [1] is more than 20000 nM; in assay [2], more than 20000 nM; in assay [3] it was more than 3310 nM; in assay [5], 37 nM.
For the compound `CC(CC1(C2CN(C(=O)OC(C)(C)C)C2)NC(=O)NC1=O)C(=O)N1CCN(c2ccc(F)c(F)c2)CC1` (stereo not shown) [compound 234, tert-butyl 3-[4-[3-[4-(3,4-difluorophenyl)piperazin-1-yl]-2-methyl-3-oxo-propyl]-2,5-dioxo-imidazolidin-4-yl]azetidine-1-carboxy late], the IC50 is 5.6 nM in assay [1], 7 nM in assay [2], more than 4000 nM in assay [3] and 28 nM in assay [4].
In the same order, the values of `CC(CC1(C2CNC2)NC(=O)NC1=O)C(=O)N1CCN(c2ccc(F)c(F)c2)[C@@H](C)C1` (stereo partly drawn) [compound 247, 5-(azetidin-3-yl)-5-[3-[(3S)-4-(3,4-difluorophenyl)-3-methyl-piperazin-1-yl]-2-methyl-3-oxo-propyl]imidazolidine-2,4-dione] are more than 20000 nM, more than 4000 nM, more than 19600 nM and 95 nM.
On to `CC(CC1(C2CC2)NC(=O)NC1=O)C(=O)N1CCN(c2cncc(Cl)c2)[C@@H](C)C1` (stereo partly drawn) [compound 314, 5-[3-[(3S)-4-(5-chloro-3-pyridyl)-3-methyl-piperazin-1-yl]-2-methyl-3-oxo-propyl]-5-cyclopropyl-imidazolidine-2,4-dione], for which the IC50 in assay [2] is more than 20000 nM; in assay [3] it was more than 4000 nM; in assay [4] it was 24 nM; in assay [5], 34 nM.
Take `COCC1(CC(C)C(=O)N2CCN(c3cccc(F)c3)[C@@H](C)C2)NC(=O)NC1=O` (stereo partly drawn) [compound 229, 5-[3-[(3S)-4-(3-fluorophenyl)-3-methyl-piperazin-1-yl]-2-methyl-3-oxo-propyl]-5-(methoxymethyl)imidazolidine-2,4-dione]: the 50% inhibitory concentration (IC50) in assay [1] was 3850 nM; in assay [2] it was 682 nM; in assay [3], more than 4000 nM; in assay [4], 31 nM.
With `COC(CC1(C)NC(=O)NC1=O)C(=O)N1CCN(c2cc(F)cc(Cl)c2)[C@@H](C)C1` (stereo partly drawn) [compound 295, 5-[3-[(3S)-4-(3-chloro-5-fluoro-phenyl)-3-methyl-piperazin-1-yl]-2-methoxy-3-oxo-propyl]-5-methyl-imidazolidine-2,4-dione], the IC50 is 3460 nM in assay [2], more than 20000 nM in assay [3], 115 nM in assay [4] and 71 nM in assay [5].
In the same order, the values of `C[C@H]1CN(C(=O)CCC2(c3cocn3)NC(=O)NC2=O)CCN1c1cc(F)cc(Cl)c1` (stereo partly drawn) [compound 388, 5-[3-[(3S)-4-(3-chloro-5-fluoro-phenyl)-3-methyl-piperazin-1-yl]-3-oxo-propyl]-5-oxazol-4-yl-imidazolidine-2,4-dione] are 549 nM, more than 4000 nM, 57 nM and 74 nM.
With `CC(CC1(CCNC(=O)OC(C)(C)C)NC(=O)NC1=O)C(=O)N1CCN(c2ccc(F)c(F)c2)CC1` (stereo not shown) [compound 235, tert-butyl N-[2-[4-[3-[4-(3,4-difluorophenyl)piperazin-1-yl]-2-methyl-3-oxo-propyl]-2,5-dioxo-imidazolidin-4-yl]ethyl]carbamate], the IC50 in assay [1] is 21.2 nM; in assay [2], 26 nM; in assay [3], 1320 nM; in assay [4], 16 nM.
Consider `COCC1(CC(C)C(=O)N2CCN(c3cc(F)ccc3C)CC2)NC(=O)NC1=O` (stereo not shown) [compound 230, 5-[3-[4-(5-fluoro-2-methyl-phenyl)piperazin-1-yl]-2-methyl-3-oxo-propyl]-5-(methoxymethyl)imidazolidine-2,4-dione], for which the IC50 in assay [1] was more than 20000 nM; in assay [2] it was more than 20000 nM; in assay [3], 207 nM; in assay [4] it was 24 nM.
`COCC1(CC(C)C(=O)N2CCN(c3cc(F)ccc3C)[C@@H](C)C2)NC(=O)NC1=O` (stereo partly drawn) [compound 228, 5-[3-[(3S)-4-(5-fluoro-2-methyl-phenyl)-3-methyl-piperazin-1-yl]-2-methyl-3-oxo-propyl]-5-(methoxymethyl)imidazolidine-2,4-dione]: the IC50 in assay [1] is more than 4000 nM; in assay [2] it was more than 20000 nM; in assay [3], more than 4000 nM; in assay [4], 109 nM.
`Cc1ccc(F)cc1N1CCN(C(=O)CCC2(C)NC(=O)NC2=O)CC1` (stereo not shown) [compound 51, 5-[3-[4-(5-fluoro-2-methyl-phenyl)piperazin-1-yl]-3-oxo-propyl]-5-methyl-imidazolidine-2,4-dione]: the IC50 was more than 20000 nM in assay [2], more than 3660 nM in assay [3] and 508 nM in assay [5].
`Cc1cccc(C2(CCC(=O)N3CCN(c4cc(F)cc(F)c4)[C@@H](C)C3)NC(=O)NC2=O)n1` (stereo partly drawn) [compound 309, 5-[3-[(3S)-4-(3,5-difluorophenyl)-3-methyl-piperazin-1-yl]-3-oxo-propyl]-5-(6-methyl-2-pyridyl)imidazolidine-2,4-dione]: the IC50 in assay [2] was more than 20000 nM; in assay [3], more than 4000 nM; in assay [4], 31 nM.
The like results for `C[C@H]1CN(C(=O)CCC2(c3cn(C)cn3)NC(=O)NC2=O)CCN1c1cc(F)cc(Cl)c1` (stereo partly drawn) [compound 389, 5-[3-[(3S)-4-(3-chloro-5-fluoro-phenyl)-3-methyl-piperazin-1-yl]-3-oxo-propyl]-5-(1-methylimidazol-4-yl)imidazolidine-2,4-dione] were, in that order, more than 20000 nM, more than 4000 nM and 40 nM.
The like results for `C[C@H]1CN(C(=O)CCC2(C3CC3)NC(=O)NC2=O)CCN1c1cccnc1` (stereo partly drawn) [compound 259, 5-cyclopropyl-5-[3-[(3S)-3-methyl-4-(3-pyridyl)piperazin-1-yl]-3-oxo-propyl]imidazolidine-2,4-dione] were, in that order, more than 20000 nM, more than 20000 nM and 224 nM.

The values above are taken from patent US9926281B2 (priority 2014, dated 2018).
